Our source for the EC50 values is patent US8288404B2, “Pyrrolidine GPR40 modulators” (Bristol-Myers Squibb Company, priority 2009, dated 2012).

Where a name gives a salt, the structure may show the parent alone.

This test deals with T1, hGPR40 (Homo sapiens, UniProt O14842).
T1 construct: 3xFLAG; expressed in transfected cells
T1 sequence (O14842 whole entry): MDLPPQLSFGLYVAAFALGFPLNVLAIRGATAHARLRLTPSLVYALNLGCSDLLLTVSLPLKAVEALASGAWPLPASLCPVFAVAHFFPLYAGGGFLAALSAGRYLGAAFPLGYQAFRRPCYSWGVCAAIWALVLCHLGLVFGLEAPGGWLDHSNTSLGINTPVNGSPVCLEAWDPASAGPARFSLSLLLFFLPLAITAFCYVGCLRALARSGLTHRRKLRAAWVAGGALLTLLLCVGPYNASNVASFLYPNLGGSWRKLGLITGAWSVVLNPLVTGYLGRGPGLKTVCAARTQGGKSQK
In words: FDSS-Based Intracellular Calcium Assay (Human GRP40 In Vitro assay). To be noted: cell lines expressing GPR40, intracellular Ca2+ response, FDSS reader. The method, then:
FDSS-Based Intracellular Calcium Assay
Cell lines expressing GPR40 are generated using the pDEST 3xflag gene expression system and are cultured in culture medium comprising the following components: F12 (Gibco #11765), 10% lipid deprived fetal bovine serum, 250 ug/ml zeocin and 500 ug/ml G418. To conduct the fluorescent imaging plate reader (FLIPR)-based calcium flux assay to measure intracellular Ca^2+ response, cells expressing GPR40 are plated on 384 well plates (BD Biocoat #356697) at a density of 20,000 cells/20 ul medium per well in phenol red and serum-free DMEM (Gibco #21063-029) and incubated overnight. Using BD kit #s 80500-310 or -301, the cells are incubated with 20 ul per well of Hank's buffered salt solution with 1.7 mM probenecid and Fluo-3 at 37° C. for 30 minutes. Compounds are dissolved in DMSO and diluted to desired concentrations with assay buffer and added to the cells as 3× solution (20 ul per well). Run fluorescence/luminescence reader FDSS (Hamamatsu) to read intracellular Ca^2+ response.
Table 1 below lists hGPR40 EC50 values measured for the following examples.
For orientation: Calcium assays in cells follow changes in intracellular calcium, usually with a dye or a luminescent sensor.
Usually EC50 stands for the midpoint of the concentration-response curve. Take `Cc1ccccc1Oc1ccc(N2CCC[C@H]2CC(=O)O)cc1F` [Example 1, (S)-2-(1-(3-fluoro-4-(o-tolyloxy)phenyl)pyrrolidin-2-yl)acetic acid, TFA]: the EC50 was found to be 1630 nM.

`Cc1cccc(C)c1Oc1ccc(N2CCC[C@@H]2CC(=O)O)cc1` [Example 4, (R)-2-(1-(4-(2,6-dimethylphenoxy)phenyl)pyrrolidin-2-yl)acetic acid, HCl]: the EC50 amounted to 3800 nM.

As for `Cc1ccccc1Oc1ccc(N2CCC[C@H]2CC(=O)O)cc1` [Example 5, (S)-2-(1-(4-(o-tolyloxy)phenyl)pyrrolidin-2-yl)acetic acid, HCl], the EC50 came to 65 nM. As for `Cc1ccccc1Cc1ccc(N2C[C@@H](C(F)(F)F)C[C@H]2CC(=O)O)cc1` [Example 40, 2-((2S,4S)-1-(4-(2-methylbenzyl)phenyl)-4-(trifluoromethyl)pyrrolidin-2-yl)acetic acid, TFA], the figure is 61 nM; as for `Cc1ccccc1Oc1ccc(N2C[C@@H](C(F)(F)F)C[C@H]2CC(=O)O)cc1` [Example 41, 2-((2S,4S)-1-(4-(o-tolyloxy)phenyl)-4-(trifluoromethyl)pyrrolidin-2-yl)acetic acid, TFA], 56 nM. In the case of `Cc1ccccc1Sc1ccc(N2CCC[C@H]2CC(=O)O)cc1` [Example 44, (S)-2-(1-(4-(o-tolylthio)phenyl)pyrrolidin-2-yl)acetic acid, TFA], the EC50 amounted to 352 nM. Take `COc1ccc(Oc2ccc(N3C[C@@H](C(F)(F)F)C[C@H]3CC(=O)O)cc2)c(C)c1` [Example 50, 2-((2S,4S)-1-(4-(4-methoxy-2-methylphenoxy)phenyl)-4-(trifluoromethyl)pyrrolidin-2-yl)acetic acid, TFA]: the EC50 stood at 55 nM.

On to `O=C(O)C[C@@H]1C[C@H](C(F)(F)F)CN1c1ccc(Oc2ccccc2C(F)(F)F)cc1` [Example 52, 2-((2S,4S)-4-(trifluoromethyl)-1-(4-(2-(trifluoromethyl)phenoxy)phenyl)pyrrolidin-2-yl)acetic acid, TFA], for which the EC50 is 305 nM. As for `CO[C@H]1C[C@@H](CC(=O)O)N(c2ccc(Oc3ccccc3C)cc2)C1` [Example 56, 2-((2S,4S)-4-methoxy-1-(4-(o-tolyloxy)phenyl)pyrrolidin-2-yl)acetic acid, TFA], the figure is 2320 nM; as for `O=C(O)C[C@@H]1CCCN1c1ccc(Cc2ccc(OCc3ccccc3)cc2)cc1` [Example 58, (S)-2-(1-(4-(4-(benzyloxy)benzyl)phenyl)pyrrolidin-2-yl)acetic acid, TFA], 331 nM; as for `COc1ccc(F)c(-c2cccc(Oc3ccc(N4CCC[C@H]4CC(=O)O)cc3)c2C)c1` [Example 68, 2-((2S)-1-(4-(2′-fluoro-5′-methoxy-2-methylbiphenyl-3-yloxy)phenyl)pyrrolidin-2-yl)acetic acid, TFA], 314 nM. On to `Cc1ccccc1COc1cc(N2CCC[C@H]2CC(=O)O)ccn1` [Example 76, (S)-2-(1-(2-(2-methylbenzyloxy)pyridin-4-yl)pyrrolidin-2-yl)acetic acid, TFA], for which the EC50 came out at 4390 nM. Consider `Cc1ccc(COc2ccc(N3CCC[C@@H]3CC(=O)O)cc2)cc1` [Example 109], for which the EC50 is 4340 nM.
